Measurements from US20250170248A1, “SMARCA DEGRADERS AND USES THEREOF” (Kymera Therapeutics, Inc., priority 2021, published 2025).

Tests used:
Assay type in all cases: cell-based
SMARCA2 [1] = molecular target: T1, SMARCA2 (Homo sapiens, UniProt P51531); assay: MSD SMARCA2 degradation in A549 cell line; settings: for Dmax: A549, A549 cells; for Dmax / DC50: 24 h; for DC50 / SMARCA2 MSD A549 degradation 24 h: Average Dmax %: A549 cells; for DC50: read-out: SMARCA2 MSD A549 degradation 24 h: Average external-Abs DC50
T1 sequence (P51531 whole entry): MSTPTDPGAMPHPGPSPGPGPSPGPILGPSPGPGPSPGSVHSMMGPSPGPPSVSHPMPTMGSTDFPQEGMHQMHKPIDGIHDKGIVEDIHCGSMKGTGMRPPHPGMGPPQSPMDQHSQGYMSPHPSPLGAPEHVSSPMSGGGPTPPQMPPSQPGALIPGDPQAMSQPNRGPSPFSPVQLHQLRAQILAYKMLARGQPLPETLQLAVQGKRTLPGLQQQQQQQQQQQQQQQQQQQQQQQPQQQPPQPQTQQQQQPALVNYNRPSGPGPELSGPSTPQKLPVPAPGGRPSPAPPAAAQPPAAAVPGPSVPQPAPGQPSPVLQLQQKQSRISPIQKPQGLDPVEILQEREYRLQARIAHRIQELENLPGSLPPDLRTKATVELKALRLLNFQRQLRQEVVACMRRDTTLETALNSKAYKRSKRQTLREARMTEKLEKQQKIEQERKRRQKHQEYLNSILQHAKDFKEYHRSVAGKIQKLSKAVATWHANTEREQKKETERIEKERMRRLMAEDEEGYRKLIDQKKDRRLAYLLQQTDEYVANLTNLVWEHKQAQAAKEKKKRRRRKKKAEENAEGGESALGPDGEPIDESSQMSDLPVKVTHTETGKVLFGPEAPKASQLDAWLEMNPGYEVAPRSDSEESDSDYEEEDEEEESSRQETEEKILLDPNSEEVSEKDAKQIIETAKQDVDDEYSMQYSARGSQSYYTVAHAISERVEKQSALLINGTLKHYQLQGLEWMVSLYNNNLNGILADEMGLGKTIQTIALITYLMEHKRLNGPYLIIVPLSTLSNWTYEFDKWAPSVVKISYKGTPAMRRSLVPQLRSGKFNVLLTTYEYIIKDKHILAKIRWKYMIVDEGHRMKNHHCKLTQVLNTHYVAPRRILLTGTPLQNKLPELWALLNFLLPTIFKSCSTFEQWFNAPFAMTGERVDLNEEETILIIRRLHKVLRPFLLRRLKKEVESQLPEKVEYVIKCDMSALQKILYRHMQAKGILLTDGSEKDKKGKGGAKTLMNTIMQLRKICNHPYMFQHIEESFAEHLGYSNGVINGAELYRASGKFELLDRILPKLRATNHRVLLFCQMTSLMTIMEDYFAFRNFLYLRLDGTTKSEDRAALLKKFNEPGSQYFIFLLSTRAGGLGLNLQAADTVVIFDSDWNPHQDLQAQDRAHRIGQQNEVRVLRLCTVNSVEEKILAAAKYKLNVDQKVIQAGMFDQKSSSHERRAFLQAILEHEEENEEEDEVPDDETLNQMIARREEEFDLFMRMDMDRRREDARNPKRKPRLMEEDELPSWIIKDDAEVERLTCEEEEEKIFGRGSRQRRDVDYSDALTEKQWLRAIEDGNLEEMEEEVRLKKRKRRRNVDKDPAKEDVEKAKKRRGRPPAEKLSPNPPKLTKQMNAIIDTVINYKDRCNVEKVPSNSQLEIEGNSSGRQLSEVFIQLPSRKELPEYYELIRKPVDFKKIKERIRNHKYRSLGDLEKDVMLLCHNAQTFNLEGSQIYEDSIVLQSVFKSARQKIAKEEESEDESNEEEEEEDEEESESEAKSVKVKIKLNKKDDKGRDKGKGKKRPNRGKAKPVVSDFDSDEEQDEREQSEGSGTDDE
Procedure, shortened: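 SMARCA2 protein remaining after 24 h exposure of A549 cells (top concentration 1000 nM, 3-fold dilutions) was measured by MSD electrochemiluminescence immunoassay of cell lysates. Results are given as binned DC50 and maximal degradation (Dmax) codes.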

SMARCA4 = molecular target: T2, SMARCA4 (Homo sapiens, UniProt P51532); assay: SMARCA4 Western blot degradation in MV4-11 cells; settings: for Dmax: MV4-11, MV4-11 cells, read-out: SMARCA4 MSD MV411 degradation 24 h: average Dmax %; for Dmax / DC50: 24 h; for DC50 / SMARCA4 MSD MV411 degradation 24 h: average Dmax %: MV4-11 cells; for DC50: read-out: SMARCA4 MSD MV411 degradation 24 h: Mean external-Abs DC50
T2 construct: SMARCA2/SMARCA4 protein degradation selectivity in MV4-11 cells; endogenous in cells; host or cells: MV4-11
T2 sequence (P51532 whole entry): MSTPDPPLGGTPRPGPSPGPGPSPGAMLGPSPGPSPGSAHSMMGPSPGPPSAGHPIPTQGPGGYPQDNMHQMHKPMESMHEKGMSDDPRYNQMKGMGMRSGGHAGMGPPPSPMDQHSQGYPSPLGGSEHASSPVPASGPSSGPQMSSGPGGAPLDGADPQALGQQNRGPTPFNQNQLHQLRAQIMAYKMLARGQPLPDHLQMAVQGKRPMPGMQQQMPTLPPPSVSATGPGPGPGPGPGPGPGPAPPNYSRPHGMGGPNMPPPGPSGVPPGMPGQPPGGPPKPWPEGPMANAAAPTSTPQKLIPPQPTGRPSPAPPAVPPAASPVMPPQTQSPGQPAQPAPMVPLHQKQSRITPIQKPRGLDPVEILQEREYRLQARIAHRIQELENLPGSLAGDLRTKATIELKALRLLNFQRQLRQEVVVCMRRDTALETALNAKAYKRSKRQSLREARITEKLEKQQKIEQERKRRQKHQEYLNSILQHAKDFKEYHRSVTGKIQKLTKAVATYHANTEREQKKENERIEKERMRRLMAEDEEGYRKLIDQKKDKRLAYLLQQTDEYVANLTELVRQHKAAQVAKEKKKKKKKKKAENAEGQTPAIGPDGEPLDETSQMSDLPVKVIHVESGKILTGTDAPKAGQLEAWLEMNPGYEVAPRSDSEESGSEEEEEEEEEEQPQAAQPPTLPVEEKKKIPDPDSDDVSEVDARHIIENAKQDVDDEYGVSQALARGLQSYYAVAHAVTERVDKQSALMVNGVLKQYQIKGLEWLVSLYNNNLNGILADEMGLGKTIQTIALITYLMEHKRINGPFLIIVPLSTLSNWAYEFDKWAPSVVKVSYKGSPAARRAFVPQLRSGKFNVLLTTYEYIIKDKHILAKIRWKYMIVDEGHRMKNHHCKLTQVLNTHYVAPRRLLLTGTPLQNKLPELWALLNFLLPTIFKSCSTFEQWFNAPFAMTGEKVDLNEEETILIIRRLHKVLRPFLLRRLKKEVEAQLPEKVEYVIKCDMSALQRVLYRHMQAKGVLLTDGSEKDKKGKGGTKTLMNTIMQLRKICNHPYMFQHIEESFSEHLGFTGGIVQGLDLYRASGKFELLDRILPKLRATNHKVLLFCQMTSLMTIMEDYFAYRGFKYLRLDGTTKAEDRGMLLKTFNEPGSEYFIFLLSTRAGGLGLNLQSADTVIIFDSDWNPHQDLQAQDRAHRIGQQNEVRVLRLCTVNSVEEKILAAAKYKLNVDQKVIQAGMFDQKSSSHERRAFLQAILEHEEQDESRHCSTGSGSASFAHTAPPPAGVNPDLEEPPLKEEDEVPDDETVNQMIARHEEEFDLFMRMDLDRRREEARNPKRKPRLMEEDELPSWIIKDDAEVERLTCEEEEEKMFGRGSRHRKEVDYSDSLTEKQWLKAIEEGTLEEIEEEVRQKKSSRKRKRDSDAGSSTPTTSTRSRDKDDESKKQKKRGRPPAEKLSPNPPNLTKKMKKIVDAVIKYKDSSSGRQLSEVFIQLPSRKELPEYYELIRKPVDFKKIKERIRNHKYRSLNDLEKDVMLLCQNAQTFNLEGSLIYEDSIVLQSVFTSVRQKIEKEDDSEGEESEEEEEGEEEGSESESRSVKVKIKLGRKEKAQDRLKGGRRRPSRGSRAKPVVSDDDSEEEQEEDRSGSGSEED
Procedure, shortened: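 Protein levels quantified by LI-COR Western blot (beta-actin loading control) in RIPA lysates of MV4-11 cells after 24 h compound exposure. Degradation reported as DC50, Dmax % at 24 h and SMARCA2 vs SMARCA4 selectivity, each binned into letter codes.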

SMARCA2 [2] = molecular target: T1, SMARCA2; assay: SMARCA2 Western blot degradation in MV4-11 cells; set-up: SMARCA2/SMARCA4 protein degradation selectivity in MV4-11 cells; endogenous in cells; host or cells: MV4-11; settings: for Dmax: MV4-11, MV4-11 cells, read-out: SMARCA2 MSD MV411 degradation 24 h: average Dmax %; for Dmax / DC50 / SMARCA2 MSD MV411 degradation 24 h: average Dmax %: 24 h; for DC50 / Selectivity in MV411 / SMARCA2 MSD MV411 degradation 24 h: average Dmax %: MV4-11 cells; for DC50: read-out: SMARCA2 MSD MV411 degradation 24 h: Mean external-Abs DC50; for Selectivity in MV411: SMARCA2/4 selectivity

SMILES	Dmax (SMARCA2 [1]) [%]	DC50 (SMARCA2 [1]) [nM]	Dmax (SMARCA4) [%]	DC50 (SMARCA4) [nM]	Dmax (SMARCA2 [2]) [%]	DC50 (SMARCA2 [2]) [nM]	Selectivity in MV411 (SMARCA2 [2])	SMARCA2 MSD A549 degradation 24 h: Average Dmax % (SMARCA2 [1])	SMARCA4 MSD MV411 degradation 24 h: average Dmax % (SMARCA4)	SMARCA2 MSD MV411 degradation 24 h: average Dmax % (SMARCA2 [2])
C#Cc1ccc(CNC(=O)[C@@H]2C[C@@H](O)CN2C(=O)[C@@H](NC(=O)N2CCN(C[C@H]3CC[C@@H](N4CCC(N5CCN6c7cc(-c8ccccc8O)nnc7NC[C@H]6C5)CC4)CC3)CC2)C(C)(C)C)cc1 [I-255]	70 to 90	> 100	< 50	> 100	70 to 90	10 to 100	B (B (>100-500 fold))	–	–	–
C#Cc1ccc([C@H](C)NC(=O)[C@@H]2C[C@@H](O)CN2C(=O)[C@@H](NC(=O)N2CC3(CC(N4CCC(c5cnc(N6CCc7[nH]c8nnc(-c9ccccc9O)cc8c7[C@H]6C)nc5)CC4)C3)C2)C(C)(C)CCO)cc1 [I-259]	> 90	< 10	< 50	> 100	70 to 90	1 to 10	A (A (>500 fold))	–	–	–
C#Cc1ccc(CNC(=O)[C@@H]2C[C@@H](O)CN2C(=O)[C@@H](NC(=O)N2CC3(CC(N4CC(N5CCC(c6cnc(N7CCc8[nH]c9nnc(-c%10ccccc%10O)cc9c8[C@H]7C)nc6)CC5)C4)C3)C2)C(C)(C)C)cc1 [I-268]	> 90	> 100	50 to 70	> 100	70 to 90	10 to 100	C (C (10-100 fold))	–	–	–
C#Cc1ccc(CNC(=O)[C@@H]2C[C@@H](O)CN2C(=O)[C@@H](NC(=O)N2CC3(CC(N4CCC(c5cnc(N6CCc7[nH]c8nnc(-c9ccccc9O)cc8c7[C@H]6C)nc5)CC4)C3)C2)C(C)(C)C)c(C)c1 [I-270]	> 90	< 10	> 90	> 100	> 90	1 to 10	C (C (10-100 fold))	–	–	–

Further lines, results first:

Dmax (SMARCA2 [1]) [%]	DC50 (SMARCA2 [1]) [nM]	Dmax (SMARCA4) [%]	DC50 (SMARCA4) [nM]	Dmax (SMARCA2 [2]) [%]	DC50 (SMARCA2 [2]) [nM]	Selectivity in MV411 (SMARCA2 [2])	SMARCA2 MSD A549 degradation 24 h: Average Dmax % (SMARCA2 [1])	SMARCA4 MSD MV411 degradation 24 h: average Dmax % (SMARCA4)	SMARCA2 MSD MV411 degradation 24 h: average Dmax % (SMARCA2 [2])	SMILES
< 50	> 100	< 50	> 100	< 50	> 100	D (D (<10 fold))	–	–	–	C#Cc1ccc(CNC(=O)[C@@H]2C[C@@H](O)CN2C(=O)[C@@H](NC(=O)N2CCC[C@H](CN3CCC(N4CCC(N5CCN6c7cc(-c8ccccc8O)nnc7NC[C@H]6C5)CC4)CC3)C2)C(C)(C)C)cc1 [I-256]
–	> 100	–	> 100	–	10 to 100	C (C (10-100 fold))	B (B (>70-90% degradation))	D (D (<50% degradation))	C (C (50-70% degradation))	C#Cc1ccc(CNC(=O)[C@@H]2C[C@@H](O)CN2C(=O)[C@@H](NC(=O)[C@H]2CCC3(CC2)C[C@H](N2CCC(N4CCC(N5CCN6c7cc(-c8ccccc8O)nnc7NC[C@H]6C5)CC4)CC2)C3)C(C)(C)C)c(F)c1 (stereo partly drawn) [I-258]
> 90	50 to 100	50 to 70	> 100	> 90	10 to 100	C (C (10-100 fold))	–	–	–	C#Cc1ccc(CNC(=O)[C@@H]2C[C@@H](O)CN2C(=O)[C@@H](NC(=O)[C@H]2CCC3(CC2)C[C@H](N2CCN(c4cnc(N5CCN6c7cc(-c8ccccc8O)nnc7NC[C@H]6C5)nc4)CC24CC4)C3)C(C)(C)C)cc1 (stereo partly drawn) [I-266]
–	50 to 100	–	> 100	–	10 to 100	B (B (>100-500 fold))	B (B (>70-90% degradation))	D (D (<50% degradation))	B (B (>70-90% degradation))	C#Cc1ccc(CNC(=O)[C@@H]2C[C@@H](O)CN2C(=O)[C@@H](NC(=O)[C@H]2CCC3(CC2)C[C@H](N2CCN(c4cnc(N5CCN6c7cc(-c8ccccc8O)nnc7NC[C@H]6C5)nc4)CC24CC4)C3)C(C)(C)C)cc1 (stereo partly drawn) [I-267]
> 90	10 to 50	50 to 70	> 100	70 to 90	10 to 100	C (C (10-100 fold))	–	–	–	C#Cc1ccc(CNC(=O)[C@@H]2C[C@@H](O)CN2C(=O)[C@@H](NC(=O)N2CCN(Cc3ccc(-c4cnc(N5CCN6c7cc(-c8ccccc8O)nnc7NC[C@H]6C5)nc4)cc3)CC2)C(C)(C)C)cc1 [I-269]
